The target in the assay is recombinant Human Phosphodiesterase B2 (PDE4B2) (Homo sapiens, UniProt Q07343). The experiment in a line: Human Phosphodiesterase B2 Alpha Screen Assay. It counts as biochemical. The conditions noted are these: cAMP substrate, Alpha Screen cAMP kit, 60 minutes at room temperature. Summed up:
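Recombinant human PDE4B2 preincubated 15 min at RT with compound in 50 mM Tris pH 7.5, 8.3 mM MgCl2, 1.7 mM EGTA, 0.01% Brij35, then reacted with cAMP for 60 min at RT. Stopped with EDTA; AlphaScreen beads with biotinylated cAMP incubated 5 h in the dark before reading. IC50 from curve fitting.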
recombinant Human Phosphodiesterase B2 (PDE4B2), sequence (Q07343 1-564 isoform Q07343-2): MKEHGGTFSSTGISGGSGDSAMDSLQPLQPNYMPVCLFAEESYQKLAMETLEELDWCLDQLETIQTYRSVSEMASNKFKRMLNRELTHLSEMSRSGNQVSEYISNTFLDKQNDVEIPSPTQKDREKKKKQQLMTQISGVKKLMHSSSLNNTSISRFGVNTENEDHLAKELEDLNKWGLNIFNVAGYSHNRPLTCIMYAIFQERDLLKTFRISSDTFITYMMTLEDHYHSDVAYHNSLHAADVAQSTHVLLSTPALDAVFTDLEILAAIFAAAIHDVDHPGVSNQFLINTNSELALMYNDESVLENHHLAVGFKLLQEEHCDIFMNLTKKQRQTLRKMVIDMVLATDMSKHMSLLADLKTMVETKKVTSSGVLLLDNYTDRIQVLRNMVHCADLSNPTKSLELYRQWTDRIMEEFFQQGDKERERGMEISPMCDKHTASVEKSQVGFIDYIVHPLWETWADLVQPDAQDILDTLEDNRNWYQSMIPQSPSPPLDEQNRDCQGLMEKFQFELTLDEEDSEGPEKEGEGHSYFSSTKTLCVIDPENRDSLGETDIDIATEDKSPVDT
In the case of `O=C(N[C@H]1CC[C@@H](n2c(=O)c3cc(F)cnc3n(-c3ccc(F)c(F)c3)c2=O)CC1)c1cccc2cccnc12` [Example 53, N-{cis-4-[1-(3,4-difluorophenyl)-6-fluoro-2,4-dioxo-1,4-dihydropyrido[2,3-d]pyrimidin-3(2H)-yl]cyclohexyl}quinoline-8-carboxamide], the half-maximal inhibitory concentration (IC50) (commonly the concentration that inhibits the measured activity by half) was determined as 0.4 nM.
The result for `O=C(N[C@H]1CC[C@@H](n2c(=O)c3cc(F)cnc3n(-c3ccc(F)c(F)c3)c2=O)CC1)c1ncccc1O` [Example 11, N-{cis-4-[1-(3,4-difluorophenyl)-6-fluoro-2,4-dioxo-1,4-dihydropyrido[2,3-d]pyrimidin-3(2H)-yl]cyclohexyl}-3-hydroxypyridine-2-carboxamide] reads 3.4 nM; that for `CCC(=O)N[C@H]1CC[C@@H](n2c(=O)c3cc(F)cnc3n(-c3cccc(SC)c3)c2=O)CC1` [Example 56, N-{cis-4-[6-fluoro-1-[3-(methylthio)phenyl]-2,4-dioxo-1,4-dihydropyrido[2,3-d]pyrimidin-3(2H)-yl]cyclohexyl}propanamide], 7.2 nM; that for `COC(=O)c1cccc(-n2c(=O)n([C@H]3CC[C@@H](NC(=O)c4ccc(CN(C)C)o4)CC3)c(=O)c3cc(F)cnc32)c1` [Example 74, methyl 3-[3-[cis-4-({5-[(dimethylamino)methyl]-2-furoyl}amino)cyclohexyl]-6-fluoro-2,4-dioxo-3,4-dihydropyrido[2,3-d]pyrimidin-1(2H)-yl]benzoate], 5.1 nM.
The result for `COc1ccc(C(=O)N[C@H]2CC[C@@H](n3c(=O)c4cc(F)cnc4n(-c4ccc(F)c(F)c4)c3=O)CC2)c(O)c1` [Example 19, N-{cis-4-[1-(3,4-difluorophenyl)-6-fluoro-2,4-dioxo-1,4-dihydropyrido[2,3-d]pyrimidin-3(2H)-yl]cyclohexyl}-2-hydroxy-4-methoxybenzamide] reads 2 nM; that for `COc1ccc(C(=O)N[C@H]2CC[C@@H](n3c(=O)c4cc(F)cnc4n(-c4ccc(F)c(F)c4)c3=O)CC2)cc1O` [Example 26, N-{cis-4-[1-(3,4-difluorophenyl)-6-fluoro-2,4-dioxo-1,4-dihydropyrido[2,3-d]pyrimidin-3(2H)-yl]cyclohexyl}-3-hydroxy-4-methoxybenzamide], 1 nM; that for `O=C(N[C@H]1CC[C@@H](n2c(=O)c3cc(F)cnc3n(-c3ccc(F)c(F)c3)c2=O)CC1)c1cc[nH]n1` [Example 98, N-{cis-4-[1-(3,4-difluorophenyl)-6-fluoro-2,4-dioxo-1,4-dihydropyrido[2,3-d]pyrimidin-3(2H)-yl]cyclohexyl}-1H-pyrazole-3-carboxamide], 50.1 nM.
Regarding `N#Cc1ccc(C(=O)N[C@H]2CC[C@@H](n3c(=O)c4cc(F)cnc4n(-c4ccc(F)c(F)c4)c3=O)CC2)cc1` [Example 89, 4-cyano-N-{cis-4-[1-(3,4-difluorophenyl)-6-fluoro-2,4-dioxo-1,4-dihydropyrido[2,3-d]pyrimidin-3(2H)-yl]cyclohexyl}benzamide], the half-inhibitory concentration (IC50) stood at 10.8 nM.
For the compound `CS(=O)(=O)c1cccc(-n2c(=O)n([C@H]3CC[C@@H](NC(=O)c4cc(CO)ccc4O)CC3)c(=O)c3cc(F)cnc32)c1` [Example 41, N-{cis-4-[6-fluoro-1-[3-(methylsulfonyl)phenyl]-2,4-dioxo-1,4-dihydropyrido[2,3-d]pyrimidin-3(2H)-yl]cyclohexyl}-2-hydroxy-5-(hydroxymethyl)benzamide], the half-inhibitory concentration (IC50) is 51.9 nM.
The result for `O=C(N[C@H]1CC[C@@H](n2c(=O)c3cc(F)cnc3n(-c3ccc(F)c(F)c3)c2=O)CC1)c1ccc(F)cc1O` [Example 51, N-{cis-4-[1-(3,4-difluorophenyl)-6-fluoro-2,4-dioxo-1,4-dihydropyrido[2,3-d]pyrimidin-3(2H)-yl]cyclohexyl}-4-fluoro-2-hydroxybenzamide] reads 5.2 nM; that for `CSc1cccc(-n2c(=O)n([C@H]3CC[C@@H](NC(=O)C4CC4)CC3)c(=O)c3cc(F)cnc32)c1` [Example 55, N-{cis-4-[6-fluoro-1-[3-(methylthio)phenyl]-2,4-dioxo-1,4-dihydropyrido[2,3-d]pyrimidin-3(2H)-yl]cyclohexyl}cyclopropanecarboxamide], 2.6 nM; that for `COC(=O)c1cccc(-n2c(=O)n([C@H]3CC[C@@H](NC(=O)C4CCN(C)CC4)CC3)c(=O)c3cc(F)cnc32)c1` [Example 73, methyl 3-[6-fluoro-3-(cis-4-{[(1-methylpiperidin-4-yl)carbonyl]amino}cyclohexyl)-2,4-dioxo-3,4-dihydropyrido[2,3-d]pyrimidin-1(2H)-yl]benzoate], 62.6 nM.
With `CS(=O)(=O)c1cccc(-n2c(=O)n([C@H]3CC[C@@H](NC(=O)c4cc(Cl)ccc4O)CC3)c(=O)c3cc(F)cnc32)c1` [Example 40, 5-chloro-N-{cis-4-[6-fluoro-1-[3-(methylsulfonyl)phenyl]-2,4-dioxo-1,4-dihydropyrido[2,3-d]pyrimidin-3(2H)-yl]cyclohexyl}-2-hydroxybenzamide], the IC50 is 90.6 nM.
The result for `O=C(N[C@H]1CC[C@@H](n2c(=O)c3cc(F)cnc3n(-c3ccc(F)c(F)c3)c2=O)CC1)c1cc2cccnc2s1` [Example 105, N-{cis-4-[1-(3,4-difluorophenyl)-6-fluoro-2,4-dioxo-1,4-dihydropyrido[2,3-d]pyrimidin-3(2H)-yl]cyclohexyl}thieno[2,3-b]pyridine-2-carboxamide] reads 6.03 nM; that for `COC(=O)c1cccc(-n2c(=O)n([C@H]3CC[C@@H](NC(=O)CC(C)C)CC3)c(=O)c3cc(F)cnc32)c1` [Example 63, methyl 3-[6-fluoro-3-{cis-4-[(3-methylbutanoyl)amino]cyclohexyl}-2,4-dioxo-3,4-dihydropyrido[2,3-d]pyrimidin-1(2H)-yl]benzoate], 5.7 nM.
For `O=C(N[C@H]1CC[C@@H](n2c(=O)c3cc(F)cnc3n(-c3ccc(F)c(F)c3)c2=O)CC1)c1ccsc1` [Example 95, N-{cis-4-[1-(3,4-difluorophenyl)-6-fluoro-2,4-dioxo-1,4-dihydropyrido[2,3-d]pyrimidin-3(2H)-yl]cyclohexyl}thiophene-3-carboxamide] the value was 3.39 nM.
For `Cc1c(O)cccc1C(=O)N[C@H]1CC[C@@H](n2c(=O)c3cc(F)cnc3n(-c3ccc(F)c(F)c3)c2=O)CC1` [Example 13, N-{cis-4-[1-(3,4-difluorophenyl)-6-fluoro-2,4-dioxo-1,4-dihydropyrido[2,3-d]pyrimidin-3(2H)-yl]cyclohexyl}-3-hydroxy-2-methylbenzamide] the value was 3.2 nM; for `O=C(N[C@H]1CC[C@@H](n2c(=O)c3cc(F)cnc3n(-c3ccc(F)c(F)c3)c2=O)CC1)C(O)c1ccccc1` (relative stereo) [Example 2, N-{cis-4-[1-(3,4-difluorophenyl)-6-fluoro-2,4-dioxo-1,4-dihydropyrido[2,3-d]pyrimidin-3(2H)-yl]cyclohexyl}-2-hydroxy-2-phenylacetamide], 0.9 nM.
Take `O=C(N[C@H]1CC[C@@H](n2c(=O)c3cc(F)cnc3n(-c3ccc(F)c(F)c3)c2=O)CC1)c1ccc(O)c(Cl)c1` [Example 12, 3-chloro-N-{cis-4-[1-(3,4-difluorophenyl)-6-fluoro-2,4-dioxo-1,4-dihydropyrido[2,3-d]pyrimidin-3(2H)-yl]cyclohexyl}-4-hydroxybenzamide]: the IC50 was found to be 2.2 nM.
